The results in this text go back to a melting point compilation (Tetko et al.; mined from patent text by program, amines drawn as free bases though some values may be those of a salt).

For orientation: melting point means the temperature of the solid-liquid transition.

`CN(CCCl)S(=O)(=O)c1ccc2ccccc2c1`: the melting point is 101 °C.

`CCN1C(=O)CC(C(=O)O)C1c1ccccc1` (configuration not stated) showed a melting point of 151 to 156 °C.

`O=C(c1ccc(F)cc1)C1CCN(CC2CCc3onc(-c4ccccc4F)c3C2=O)CC1` (configuration not stated) gave a melting point of 99 to 102 °C.

Molecule `CC(=O)On1c(C)csc1=S` showed a melting point of 100 to 101 °C.

For `NC(=O)c1cc(-c2ccnc(Nc3cccc(OC(F)(F)C(F)F)c3)n2)ccn1`, the melting point is 224 to 225 °C.

Molecule `CC(CCCC(C)C1CCC2C3CC=C4C(C)(C)C(O)CCC4(C)C3CCC12C)CO[Si](C)(C)C(C)(C)C` (configuration not stated) displayed a melting point of 88.5 °C.

With `Fc1ccc(Cn2c(NC3CCN(CCNc4nc5cccnc5s4)CC3)nc3ccccc32)cc1`, the melting point was determined as 204 °C.

With `CNC(=O)c1ccc(-c2ccc3nnn(Cc4c(F)ccc(F)c4Cl)c3n2)cc1F`, the melting point is 213 to 215 °C.

In turn, `CCOC(=O)c1cccc(NC(=O)c2ccc(OC)c(Nc3cccc(C(F)(F)F)c3)c2)c1` showed a melting point of 169 to 170 °C.

`CCOC(=O)C1=Cc2cc(Cl)cc(-c3cccc(OC)c3)c2OC1C(F)(F)F` (configuration not stated) showed a melting point of 93.7 to 95.1 °C.

Regarding `CN(C)C(=O)Cc1nn(-c2ccccc2)c(=O)c2[nH]c3ccc(F)cc3c12`, the melting point fell in the range of 289 to 290 °C.

On to `COc1cccc(Sc2cccc(F)c2C#N)c1`, for which the melting point lay in the range of 99 to 100 °C.

`N#CC(=C(O)C1CCN(Cc2ccccc2)CC1)c1ccccc1` had a melting point of 192 °C.

For the molecule `CNC1([C@@H]2CCN(c3c(F)cc4c(=O)c(C(=O)O)cn([C@@H]5C[C@@H]5F)c4c3OC)C2)CC1`, the melting point is 208 to 209 °C.

Turning to `COC(=O)c1[nH]ccc1OC(C)C`, the melting point fell in the range of 77 to 79 °C.

Take `Cc1cc(-c2ccc(C#N)cc2)c(C#N)n1Cc1cnc(Cl)c(CO)c1`: the melting point worked out at 184 °C.

As to `COc1ccc(C(=O)Nc2c(Cl)cncc2Cl)c2c1oc1ccc(NC(=O)C(F)(F)F)cc12`, the melting point was above 300 °C.

In turn, `CCOC(=O)C1=C(C)N(C(C)=O)C(c2csc(C)n2)=NC1c1cccc(C)c1` (configuration not stated) came in with a melting point of 113 to 114 °C.

`Oc1cc(Br)cc(O)c1F` gave a melting point of 83 to 86 °C.

The molecule `COc1ccc(C=C(C=O)C(C=O)=Cc2ccc(OC)cc2)cc1` yielded a melting point of 207 °C.

Take `CCCSC(Cn1ccnc1)(SCCC)c1ccc2ccccc2c1`: the melting point was 188 to 190 °C.

For the molecule `CCCCc1nc(Cl)c(C(=O)OC)n1Cc1ccc(-c2ccccc2C(=O)O)cc1`, the melting point fell in the range of 154 to 155 °C.

The molecule `O=C(Nc1cc(-c2ccccc2)on1)Nc1cccc2c1C1CCCCN1C2=O` (configuration not stated) registered a melting point of 248 °C.

Take `COC1=CC(=O)c2ccccc2C1=O`: the melting point lay in the range of 182 to 183 °C.

Molecule `CC(C)(C)c1ccc(/C=C/C(=O)Nc2cccc(OCC(=O)O)c2)cc1` showed a melting point of 166 to 172 °C.

For `COc1nsc(S(C)(=O)=O)c1C#N`, the melting point fell in the range of 167 to 168 °C.

As for `CN(C)C(=O)C(=O)C1=CC2(CCCC2)c2ccccc21`, the melting point lay in the range of 119 to 121 °C.

With `CCOC(=O)CCc1cccc(CNC(=O)C[C@H]2O[C@H](c3cccc(OC)c3OC)c3cc(Cl)ccc3N(CC(C)(C)CO)C2=O)c1`, the melting point lay within 94 to 95 °C.

`CC(C)(C)OC(=O)N[C@H](c1ccc(Cl)cc1)[C@H](c1ccc(Cl)cc1)[N+](=O)[O-]` returned a melting point of 172 to 174 °C.

In turn, `O=C(CCC(=O)N1CCC(c2ccc(Cl)cc2)CC1)c1ccc2c(c1)CNCCC2` showed a melting point of 122 to 124 °C.

Molecule `N#Cc1cnc2sc(-c3ccccc3)cc2c1Oc1ccc2[nH]ccc2c1` registered a melting point of 219 to 221 °C.

Molecule `COC(=O)CN(C)C(=O)c1c(OCc2ccccc2)ccc2c(C(F)(F)F)c(OC)ccc12` registered a melting point of 95 to 98 °C.

Consider `CC1=NNC(C)=C(C(=O)NN)C1c1ccccc1` (configuration not stated), for which the melting point amounted to 156 °C.

In turn, `FC(F)(F)c1cc2cc3cc4cc(Sc5ccccc5)c(Sc5ccccc5)cc4cc3cc2cc1C(F)(F)F` showed a melting point above 260 °C.

On to `CNC(=O)c1ccc2cc(C(=O)O)ccc2c1`, for which the melting point is above 276 °C.

The molecule `O=C(NCCO)c1cccc(-c2ccc3c(c2)N(c2cccc(Cl)c2Cl)CC3)c1` came in with a melting point of 162 to 163 °C.

In turn, `CCOc1ccc2c(-c3ccccc3)c([N+](=O)[O-])oc2c1` came in with a melting point of 109 to 111 °C.

`Fc1ccc(-c2nn3c(c2-c2ccncc2)NCCC3)cc1` yielded a melting point of 207 to 209 °C.

In turn, `CCOP(=O)(OCC)C1CCc2c([N+](=O)[O-])c(C(F)(F)F)cc3[nH]c(=O)c(=O)n1c23` (configuration not stated) had a melting point of 254 °C.

Molecule `CCOC(=O)C(=CNc1ccc([N+](=O)[O-])cc1O)C(=O)c1cc(F)c(F)c(F)c1F` displayed a melting point of 225 °C.

On to `COC(=O)COc1c(-c2ccccc2)c(=O)[nH]c2cc(Cl)ccc12`, for which the melting point lay in the range of 188 to 191 °C.

For `COc1ccc(Cl)cc1N1CCN(CCCN2C(=O)c3ccccc3C2=O)CC1`, the melting point fell in the range of 131 to 133 °C.

In the case of `Cc1cccc(Nc2ncnc3ccc(CSc4nccn4C)cc23)c1`, the melting point was 137 to 139 °C.

Molecule `O=[N+]([O-])c1cnn(-c2ccc(C(F)(F)F)cc2Cl)c1` yielded a melting point of 106 to 109 °C.

With `COc1ccc(COc2cccc(C=O)c2)cc1`, the melting point was 78 °C.

Regarding `CN(C)c1cccc(-c2nc3c(N[C@H]4[C@@H](C(N)=O)[C@@H]5C=C[C@H]4C5)c(Br)cnc3[nH]2)c1`, the melting point lay in the range of 220 to 221 °C.

Regarding `O=C(Br)Cc1ccc(-c2cccc(Cl)c2)cc1`, the melting point lay in the range of 63 to 65 °C.

`COC(=O)CCCCCCCCCCCCCCCCCCCS(=O)(=O)c1ccc(C)cc1` came in with a melting point of 72.5 to 73.5 °C.

Molecule `CC/C(=C\Cn1oc(=O)[nH]c1=O)c1cccc(OCc2nc(-c3ccc(C(F)(F)F)cc3)oc2C)c1` had a melting point of 66 to 67 °C.

Consider `C#Cc1ccc2c(c1)C(c1ccccc1Cl)=NCc1nnc(C)n1-2`, for which the melting point lay within 304 to 306 °C.

In turn, `CC1NC(=Nc2ccccc2N2CCOCC2)NC1C` (configuration not stated) came in with a melting point of 142 to 143 °C.

Turning to `COc1cc2[nH]ccc2cc1OCCCN1CCC(c2noc3cc(F)ccc23)CC1`, the melting point was 186 to 188 °C.

As to `c1ccc(-c2ccnc(Nc3cccc(-n4ccnc4)c3)n2)nc1`, the melting point fell in the range of 210 to 211 °C.

As for `OCC(O)Cc1c(Cl)cc2c(c1OCc1ccccc1)CCC2` (configuration not stated), the melting point is 101 to 104 °C.

Molecule `CCNC(=O)N1C2=NC(C)(C)N(C)C(=O)N2c2ccccc21` gave a melting point of 127 to 131 °C.

As to `Cc1sc(N2C(=O)OCC2(C)C)nc1-c1ccc(Br)cc1`, the melting point is 175 to 176 °C.

`COc1cc(-n2nc(C(=O)N(C)C)c3c4ccc(Cl)cc4n(C)c3c2=O)ccn1` gave a melting point of 237 to 238 °C.

On to `O=C(O)CCCc1cccc(C(=O)c2ccc(Cl)cc2)c1`, for which the melting point came out at 94 °C.

`CCOc1ccc(OCc2ccc(OCc3nc(-c4ccccc4)oc3C)cc2)cc1CC(=O)O` yielded a melting point of 122 to 123 °C.

Molecule `N#Cc1cnn2c(C(F)(F)F)cc(-c3cccc(F)c3)nc12` gave a melting point of 199 °C.

`CCc1cc2c(-c3ccccc3Cl)c([N+](=O)[O-])cnc2s1` had a melting point of 72 to 73 °C.

Regarding `Oc1nc(NCc2ccc(F)cc2)nc(Nc2cccc(C(F)(F)F)c2)n1`, the melting point is 266 to 268 °C.
